According to patent US8802894B2, “Process for the preparation of aqueous solutions of methylglycine-N,N-diacetic acid trialkali metal salts” (BASF SE, priority 2012, dated 2014):

Assays:
[1] = solubility limit / achievable concentration in water; type: physicochemical
[2] = saturation concentration of aqueous solutions, L-enantiomer versus D,L-racemate; type: physicochemical; conditions: aqueous solution
Excerpt: The L-enantiomer of α-alanine is available at low cost and leads, through Strecker synthesis, as a result of reaction with hydrocyanic acid and formaldehyde in aqueous solution, to L-α-alanine-N,N-diacetonitrile, and saponification thereof with a base leads to aqueous solutions which not only have a higher saturation concentration of the L-enantiomer compared to the D,L-racemate of the MGDA trialkali metal salts, but which also produce a readily crystallizing solid by means of crystallization.

Row | solubility limit [1] | solubility compared to the racemate [2] | Compound
1 | ca. 18 % by weight |  | C[C@H](N)C(=O)O [α-alanine]
2 |  | higher | methylglycine-N,N-diacetic acid trialkali metal salt [L-MGDA trialkali metal salt]
